Measurements published in US9012500B2, “PKC-ε activator” (Nishizaki Bioinformation Research Institute, priority 2010, dated 2015).

Legend:
[1] = system: senescence-accelerated mouse (SAMP8); assay: Water maze test in senescence-accelerated mouse (SAMP8); format: in vivo; details: 8 days
Protocol: Using senescence-accelerated mouse (accelerated-senescence-prone mice 8: SAMP8) and normal senescence mouse (accelerated-senescence-resistant mice 1: SAMR1) as a control thereof, a water maze test was performed. Male SAMP8 and SAMR1 (22- to 25-week-old) were available from Takeda Pharmaceutical Company Limited (Osaka, Japan). The mice were individually raised in a cage at 23±1° C., 12 hr light/dark cycle (lighted at 7:00 am), and allowed to freely ingest feed (solid feed) and water.
Racemate DCP-LA and 4 optical isomers DCP-LA (α,α-, α,β-, β,α-, β,β-DCP-LA), each dissolved in 0.1 ml polyethylene glycol (PEG), or 0.1 ml PEG were orally administered once a day from the day when the water maze test was started. For each group, the water maze test was performed twice a day for 8 days, and the time required to reach a platform (acquisition latency) was measured.
For the water maze test, a circular plastic water tank (diameter 90 cm, depth 36 cm) was used. The inside of the water tank was completely painted in black, and dark water with India ink was filled up to 20 cm from the bottom (22° C.). A platform (diameter 11 cm) painted in black was placed in water such that it was 1 cm below the water surface. The water tank was placed in a test room, and several marks seen by the mice from the water tank were put thereon. During the test, the position of the marks was not changed. A platform was placed a predetermined position from the equal distance from the center and the end of the water tank, namely, center of one quadrant. At one of the randomly selected 5 points, the mouse was released facing the wall of the water tank, and the time necessary for evacuating on the platform (acquisition latency) was measured. When smoothly evacuated, the mouse was left on the platform for 10 seconds. From the day of water maze test and during the test, polyethylene glycol (PEG) alone or racemate DCP-LA (1 mg/kg), α,α-DCP-LA (0.25 mg/kg), α,β-DCP-LA (0.25 mg/kg), β,α-DCP-LA (0.25 mg/kg), or β,β-DCP-LA (0.25 mg/kg), each dissolved in PEG, was orally administered every day. The water maze test was performed twice a day, and the second test was started at 2 min from the first test. The test was continuously performed for 8 days, and the average value (±SEM) of acquisition latency of continuous 2 days until the mouse reached the platform was calculated (each n=5).

[2] = system: glutamic acid release from the hippocampus; assay: Glutamic acid release from rat hippocampus sections (HPLC); format: cell-based
[3] = system: dopamine release from the striatum; assay: Dopamine release from rat striatum sections (HPLC); format: cell-based
[4] = system: serotonin release from the hypothalamus; assay: Serotonin release from rat hypothalamus sections (HPLC); format: cell-based
PKC-ε = target: T1, PKC-ε (Homo sapiens, UniProt Q02156); details: non-patent document 1; cited from earlier work
T1 sequence (Q02156 1-737): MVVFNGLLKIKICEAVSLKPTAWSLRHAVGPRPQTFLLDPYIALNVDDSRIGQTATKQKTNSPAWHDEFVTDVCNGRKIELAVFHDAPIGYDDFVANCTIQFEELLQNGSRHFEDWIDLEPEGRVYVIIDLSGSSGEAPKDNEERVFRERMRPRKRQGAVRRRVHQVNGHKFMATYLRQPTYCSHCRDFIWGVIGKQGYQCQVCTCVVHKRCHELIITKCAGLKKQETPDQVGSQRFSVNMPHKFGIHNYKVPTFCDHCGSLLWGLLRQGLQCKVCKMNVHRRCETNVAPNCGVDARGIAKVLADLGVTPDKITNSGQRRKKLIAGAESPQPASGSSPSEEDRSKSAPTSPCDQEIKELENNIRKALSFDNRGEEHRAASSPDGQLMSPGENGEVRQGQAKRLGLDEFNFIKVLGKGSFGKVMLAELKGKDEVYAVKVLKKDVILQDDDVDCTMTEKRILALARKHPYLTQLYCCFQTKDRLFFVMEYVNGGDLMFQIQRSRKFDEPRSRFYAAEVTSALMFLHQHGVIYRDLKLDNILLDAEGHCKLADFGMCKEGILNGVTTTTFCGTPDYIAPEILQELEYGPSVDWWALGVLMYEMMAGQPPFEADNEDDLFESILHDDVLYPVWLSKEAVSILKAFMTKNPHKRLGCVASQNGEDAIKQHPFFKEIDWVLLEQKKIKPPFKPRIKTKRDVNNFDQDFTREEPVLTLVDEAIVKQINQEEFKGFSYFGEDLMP

[5] = system: senescence-accelerated mouse; details: non-patent document 2; cited from earlier work
hippocampus nerve cells = details: non-patent document 3; cited from earlier work
[6] = system: amyloid β peptide- or scopolamine-treated rat; details: non-patent document 4; cited from earlier work
[7] = target: α7 nicotinic acetylcholine receptor (Homo sapiens, UniProt P36544); details: α7 nicotinic acetylcholine receptor at the glutamatergic presynaptic terminal as target, non-patent document 5; cited from earlier work
Chain of α7 nicotinic acetylcholine receptor (P36544 23-502): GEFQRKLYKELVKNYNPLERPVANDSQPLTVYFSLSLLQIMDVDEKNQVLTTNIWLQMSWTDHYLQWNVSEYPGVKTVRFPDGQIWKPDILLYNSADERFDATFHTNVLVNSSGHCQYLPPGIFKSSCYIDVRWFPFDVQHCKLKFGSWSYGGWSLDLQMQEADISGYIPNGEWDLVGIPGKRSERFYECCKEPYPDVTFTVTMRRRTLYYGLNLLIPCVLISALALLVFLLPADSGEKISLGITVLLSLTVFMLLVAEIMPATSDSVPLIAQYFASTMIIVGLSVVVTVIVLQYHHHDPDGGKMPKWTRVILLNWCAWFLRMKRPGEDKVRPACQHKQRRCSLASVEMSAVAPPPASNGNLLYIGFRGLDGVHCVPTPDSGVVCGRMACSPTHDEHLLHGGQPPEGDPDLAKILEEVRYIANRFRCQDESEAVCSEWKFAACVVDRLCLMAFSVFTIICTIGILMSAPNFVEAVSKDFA

nerve cell = details: patent document 2; cited from earlier work
[8] = SAMP8, 0.25 mg/kg orally once a day

CCCCC[C@H]1C[C@H]1C[C@@H]1C[C@H]1CCCCCCCC(=O)O [β,β-DCP-LA, 8-[(1R,2S)-2-{(1S,2S)-2-pentylcyclopropylmethyl}-cyclopropyl]octanoic acid]
acquisition latency as compared to the PEG administration group [1, 8]: shortened acquisition latency

CCCCC[C@@H]1C[C@@H]1C[C@H]1C[C@@H]1CCCCCCCC(=O)O [α,α-DCP-LA, 8-[(1S,2R)-2-{(1R,2R)-2-pentylcyclopropylmethyl}-cyclopropyl]octanoic acid]
acquisition latency as compared to the PEG administration group [1, 8]: shortened acquisition latency | acquisition latency as compared to the racemate DCP-LA (1 mg/kg) administration group [1, 8]: significantly shortened acquisition latency

CN1CCCC1c1cccnc1 (centres unmarked) [nicotine, reference compound]
glutamic acid release, substance alone vs non-treated group [2]: did not show a remarkable difference | dopamine release, substance alone vs non-treated group [3]: did not show a remarkable difference | serotonin release, substance alone vs non-treated group [4]: did not show a remarkable difference

CN(C)CCCn1cc(C2=C(c3c[nH]c4ccccc34)C(=O)NC2=O)c2ccccc21 [GF109203X, reference compound]
effect of inhibitor on α,β-DCP-LA enhancement of nicotine-caused glutamic acid release ([2]; inhibitor 100 nM, FIG. 9): inhibited | effect of inhibitor on α,β-DCP-LA enhancement of nicotine-caused dopamine release ([3]; inhibitor 100 nM, FIG. 12): inhibited | effect of inhibitor on α,β-DCP-LA enhancement of nicotine-caused serotonin release ([4]; inhibitor 100 nM, FIG. 15): inhibited

CCCCC[C@H]1C[C@H]1C[C@H]1C[C@@H]1CCCCCCCC(=O)O [β,α-DCP-LA, 8-[(1S,2R)-2-{(1S,2S)-2-pentylcyclopropylmethyl}-cyclopropyl]octanoic acid]
acquisition latency as compared to the PEG administration group [1, 8]: shortened acquisition latency

CCCCCC1CC1CC1CC1CCCCCCCC(=O)O (racemic) [racemate DCP-LA, 8-(2-(2-pentyl-cyclopropylmethyl)-cyclopropyl)-octanoic acid]
acquisition latency as compared to the PEG administration group ([1]; SAMP8, 1 mg/kg orally once a day): shortened acquisition latency | PKC-ε activation (PKC-ε): selectively and directly activates PKC-ε | cognitive dysfunction of senescence-accelerated mouse [5]: improves cognitive dysfunction | release of γ aminobutyric acid from hippocampus nerve cells (hippocampus nerve cells): increases release of γ aminobutyric acid | cognitive dysfunction of amyloid β peptide- or scopolamine-treated rat [6]: improves cognitive dysfunction | hippocampus synaptic transmission [7]: promotes hippocampus synaptic transmission | nerve cell death induced by oxidative stress (nerve cell): suppress nerve cell death
